One experiment has as its target T1, purified HLA DRB1*1302 (Homo sapiens, UniProt P01903+P01911, A100E/A169T/K41T/L162R/M171V/P40S/Q125H/Q178H/Q39Y/Q99D/R42S/S66N/T262R/V115G/W38E/Y61H).
T1 construct: purified from EBV transformed homozygous cell lines or single MHC allele transfected 721.221, C1R, or fibroblast lines; made in house
Put plainly: HLA-DR radioligand binding inhibition assay, DRB1*1302. The procedure, abridged:
(§1)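 First, HLA-DR was purified from lysates on LB3.1 columns. Then 1 μM to 1 nM protein was incubated 2 days with 1-10 nM radiolabeled peptide at pH 4 to 7. Finally, complexes were captured for 3 hours and bound cpm determined.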

The target of the next experiment is T2, purified HLA DRB1*0901 (Homo sapiens, UniProt P01903+P01911, A100R/A103E/D57H/D86V/F55Y/F60I/F76Y/I96F/K127E/L162R/M171V/P40D/Q125H/Q99R/R33Q/R42F/S133A/S66N/T210M/V115G/W38K/Y107V/Y59G/Y89S).
T2 construct: purified from EBV transformed homozygous cell lines or single MHC allele transfected 721.221, C1R, or fibroblast lines; made in house
Put plainly: HLA-DR radioligand binding inhibition assay, DRB1*0901. Here is the method:
(§2) Instead, wells of an opaque white 96-well Optiplate (Packard) are coated with 3 μg (100 μl@ 30 μg/ml) of HLA-specific antibody (Ab) that “capture” complexes of radiolabeled MHC and unlabeled peptide transferred from the molecular binding assay plate in 100 μl of 0.05% NP40/PBS. After a 3-hour incubation period, the supernatant is decanted and scintillation fluid (Microscint 20) added. Captured complexes are then measured on a microplate scintillation and luminescence counter (TopCount NXTTM; Packard).
(§3) HLA-DR purification. Fifteen distinct HLA-DR molecules were used in quantitative assays to measure the binding of peptides to solubilized HLA-DR molecules. […] Briefly, columns of inactivated Sepharose CL4B and Protein A Sepharose were used as pre-columns. HLA-DR molecules were captured by passage of lysates over LB3.1 monoclonal antibody (anti-HLA-DRA) columns. Antibody columns were washed with 10 mM Tris-HCL, pH8.0 with 1% (v/v) NP-40, followed by PBS containing 0.4% (w/v) n-octylglucoside.
(§4) Briefly, 1-10 nM of radiolabeled peptide was co-incubated for 2 days at either room temperature or 37° C. with 1 μM to 1 nM purified HLA-DR molecules in the presence of a cocktail of protease inhibitors. Assays were performed at various pH conditions, ranging from pH 4 to pH 7. […] After incubation, the percentage of HLA-DR-bound radioactivity is determined by capturing HLA-DR/peptide complexes on Optiplates (Packard Instruments, Meriden, Conn.) coated with the LB3.1 antibody and determining bound counts per minute using the TopCount microscintillation counter (Packard Instruments).

The target in a further experiment is T3, purified HLA DRB1*0101 (Homo sapiens, UniProt P01903+P01911, A100R/D57E/F55L/F60I/F76Y/I96L/L162R/M171V/P40L/Q125E/R42F/V115G/Y59C).
T3 construct: purified from EBV transformed homozygous cell lines or single MHC allele transfected 721.221, C1R, or fibroblast lines; made in house
The experiment can be described thus: HLA-DR radioligand binding inhibition assay, DRB1*0101. The procedure, abridged: as §1

The next experiment concerns the target T4, purified HLA DRB1*0405 (Homo sapiens, UniProt P01903+P01911, A100R/A169T/D86S/F76Y/I96L/K127E/L162R/M171V/N62H/P40V/Q125Y/R42H/S133A/S149N/S66Y/V115G/V209L/W38E).
T4 construct: purified from EBV transformed homozygous cell lines or single MHC allele transfected 721.221, C1R, or fibroblast lines; made in house
The experiment can be described thus: HLA-DR radioligand binding inhibition assay, DRB1*0405. An outline of the steps:
as §1

In a further experiment the target is T5, purified HLA DRB1*1101 (Homo sapiens, UniProt P01903+P01911, A100R/A169T/A87E/I96F/K41T/L162R/M171V/P40S/Q125H/Q178H/Q39Y/Q99D/R42S/S66Y/T262R/V115G/W38E).
T5 construct: purified from EBV transformed homozygous cell lines or single MHC allele transfected 721.221, C1R, or fibroblast lines; made in house
Put plainly: HLA-DR radioligand binding inhibition assay, DRB1*1101. Particulars: IC50 nM purified HLA DRB1 *1101, purified HLA DRB1*1101. The procedure, abridged:
as §1

The target in a further experiment is T6, purified HLA DRB1*0701 (Homo sapiens, UniProt P01903+P01911, A100R/A102G/A103Q/D57E/D86V/E43K/F76Y/K127E/L162R/M171V/P40G/Q125H/Q99D/R33Q/R42Y/R54Q/S133A/S66F/T210M/V115G/Y107V/Y59L/Y89S).
T6 construct: purified from EBV transformed homozygous cell lines or single MHC allele transfected 721.221, C1R, or fibroblast lines; made in house
The experiment can be described thus: HLA-DR radioligand binding inhibition assay, DRB1*0701. To be noted: IC50 nM purified HLA DRB1 *0701, purified HLA DRB1*0701. An outline of the steps: as §1

In the next experiment the target is T7, purified HLA DRB1*0301 (Homo sapiens, UniProt P01903+P01911, A100K/A102G/A103R/A169T/F55Y/I96L/K41T/L162R/M171V/P40S/Q125H/Q178H/Q39Y/R42S/S66N/T106N/T262R/W38E/Y61H).
T7 construct: purified from EBV transformed homozygous cell lines or single MHC allele transfected 721.221, C1R, or fibroblast lines; made in house
The experiment can be described thus: HLA-DR radioligand binding inhibition assay, DRB1*0301. Particulars: IC50 nM purified HLA DRB1 *0301, purified HLA DRB1*0301. An outline of the steps: as §1

For a further experiment, the target named is T8, purified HLA DRB1*0404 (Homo sapiens, UniProt P01903+P01911, A100R/A169T/F76Y/I96L/K127E/L162R/M171V/N62H/P40V/Q125Y/R42H/S133A/S149N/S66Y/V209L/W38E).
T8 construct: purified from EBV transformed homozygous cell lines or single MHC allele transfected 721.221, C1R, or fibroblast lines; made in house
Put plainly: HLA-DR radioligand binding inhibition assay, DRB1*0404. Particulars: IC50 nM purified HLA DRB1 *0404, purified HLA DRB1*0404. The procedure, abridged:
as §1

The next experiment addresses T9, purified HLA DRB1*1201 (Homo sapiens, UniProt P01903+P01911, A100R/A169T/D57E/D86V/F55L/H45Y/K41T/L162R/M171V/P40S/Q125H/Q178H/Q39Y/Q99D/R42G/S66L/T262R/V114A/V67L/W38E/Y59H/Y61H/Y89S).
T9 construct: purified from EBV transformed homozygous cell lines or single MHC allele transfected 721.221, C1R, or fibroblast lines; made in house
Put plainly: HLA-DR radioligand binding inhibition assay, DRB1*1201. An outline of the steps:
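HLA-DR-bound radioactivity was read by scintillation counting after LB3.1 antibody capture of HLA-DR/peptide complexes. Beforehand, 1-10 nM labeled peptide was incubated 2 days with 1 μM to 1 nM purified HLA-DR (room temperature or 37° C, pH 4-7, protease inhibitor cocktail) and competitor peptides at […], in 2-4 independent runs.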

The next experiment addresses T10, purified HLA DRB1*0401 (Homo sapiens, UniProt P01903+P01911, A100K/A169T/F76Y/I96L/K127E/L162R/M171V/N62H/P40V/Q125Y/R42H/S133A/S149N/S66Y/V115G/V209L/W38E).
T10 construct: purified from EBV transformed homozygous cell lines or single MHC allele transfected 721.221, C1R, or fibroblast lines; made in house
Put plainly: HLA-DR radioligand binding inhibition assay, DRB1*0401. To be noted: IC50 nM purified HLA DRB1 *0401, purified HLA DRB1*0401. The procedure, abridged:
as §1

The target of a further experiment is T11, purified HLA DRB5*0101 (Homo sapiens, UniProt P01903+Q30154).
T11 construct: purified from EBV transformed homozygous cell lines or single MHC allele transfected 721.221, C1R, or fibroblast lines; made in house
The experiment can be described thus: HLA-DR radioligand binding inhibition assay, DRB5*0101. To be noted: IC50 nM purified HLA DRB5 *0101, purified HLA DRB5*0101. The procedure, abridged: as §1

The target of another experiment is T12, purified HLA DRB1*0802 (Homo sapiens, UniProt P01903+P01911, A100R/A103L/A169T/F76Y/H45Y/I96F/K41T/L162R/M171V/P40S/Q125H/Q178H/Q39Y/Q99D/R218S/R42G/S66Y/V115G/W38E).
T12 construct: purified from EBV transformed homozygous cell lines or single MHC allele transfected 721.221, C1R, or fibroblast lines; made in house
Put plainly: HLA-DR radioligand binding inhibition assay, DRB1*0802. To be noted: IC50 nM purified HLA DRB1 *0802, purified HLA DRB1*0802. As to the method: as §2
as §3, with “n-octylglucoside. […] The pH was reduced to 8.0 and the eluates were concentrated by centrifugation in Centriprep 30 concentrators at 2000 rpm (Amicon, Beverly, Mass.).” for “n-octylglucoside.”
as §4, with “Instruments). […] Competitor peptides are tested in 2-4 complete, independent experiments, at concentrations ranging from […].” for “Instruments).”

Consider two molecules from US20140377340A1, “HLA-DR BINDING PEPTIDES AND THEIR USES” (priority 2007, published 2014).

One may read the IC50 as the concentration needed to halve the response being measured.

Where two headings read alike, the source gives them in different places. Some results are limits rather than exact numbers.

T5 sequence (P01903 26-254, other chains not shown): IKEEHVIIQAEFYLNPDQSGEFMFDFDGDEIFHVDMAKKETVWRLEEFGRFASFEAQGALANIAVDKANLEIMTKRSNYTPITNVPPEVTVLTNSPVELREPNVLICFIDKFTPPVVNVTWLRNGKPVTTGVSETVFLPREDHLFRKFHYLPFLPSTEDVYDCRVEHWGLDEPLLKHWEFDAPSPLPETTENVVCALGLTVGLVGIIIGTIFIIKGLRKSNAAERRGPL

As to `CC[C@H](C)[C@H](NC(=O)[C@H](CCCCN)NC(=O)[C@@H](NC(=O)[C@H](Cc1c[nH]cn1)NC(=O)[C@H](CC(N)=O)NC(=O)[C@@H]1CCCN1C(=O)[C@H](CO)NC(=O)[C@H](CCCCN)NC(=O)[C@@H](NC(=O)[C@H](CC(C)C)NC(=O)[C@@H](NC(=O)[C@H](CC(N)=O)NC(=O)[C@H](CCCNC(=N)N)NC(=O)[C@H](C)N)C(C)C)C(C)C)C(C)C)C(=O)N[C@H](C(=O)O)[C@@H](C)O`, the IC50 was 15 nM at purified HLA DRB1*1302; 5780 nM on purified HLA DRB1*0901 (read-out: IC50 nM purified HLA DRB1 *0901, purified HLA DRB1*0901); 65 nM on purified HLA DRB1*0101 (read-out: IC50 nM purified HLA DRB1 *0101, purified HLA DRB1*0101); 10500 nM on purified HLA DRB1*0405 (read-out: IC50 nM purified HLA DRB1 *0405, purified HLA DRB1*0405).

Consider `CC[C@H](C)[C@H](NC(=O)[C@@H](NC(=O)[C@@H]1CCCN1C(=O)[C@H](C)N)[C@@H](C)O)C(=O)N[C@@H](CCCNC(=N)N)C(=O)NCC(=O)N[C@@H](CC(=O)O)C(=O)N1CCC[C@H]1C(=O)N[C@@H](CCC(=O)O)C(=O)N[C@@H](CS)C(=O)N[C@@H](Cc1c[nH]cn1)C(=O)N[C@@H](CC(C)C)C(=O)N[C@@H](Cc1ccccc1)C(=O)N[C@@H](Cc1ccc(O)cc1)C(=O)N[C@@H](CC(N)=O)C(=O)O` [Peptide 9019.0022], for which the IC50 on purified HLA DRB1*1101 was greater than 20000 nM; at purified HLA DRB1*0901 (IC50 nM purified HLA DRB1 *0901, purified HLA DRB1*0901) it was greater than 20000 nM; at purified HLA DRB1*0701, 16800 nM; at purified HLA DRB1*0101 (IC50 nM purified HLA DRB1 *0101, purified HLA DRB1*0101), 4030 nM; at purified HLA DRB1*0301, 31 nM; on purified HLA DRB1*0404 it was 2910 nM. Further, the IC50 on purified HLA DRB1*1201 was 16900 nM; at purified HLA DRB1*0401, 1640 nM; at purified HLA DRB5*0101, greater than 20000 nM; at purified HLA DRB1*0405 (IC50 nM purified HLA DRB1 *0405, purified HLA DRB1*0405), greater than 20000 nM; at purified HLA DRB1*0802, greater than 20000 nM.
